Assay results published in patent US6737383B1, “Herbicidal oxadiazolidines” (priority 1999, dated 2004).

Tests used:
wheat = test: Test B pre/postemergence wheat; type: in vivo, Triticum aestivum; settings: Preemergence, scale of 0 to 10 where 0 is no effect and 10 is complete control
How it was run: (§1)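 Response is a visual 0-to-10 score relative to untreated plants, where 0 means no effect and 10 means complete control, taken twelve to sixteen days after application. Treatments went onto soil at planting and onto foliage of 1- to 4-leaf plants, using a surfactant-containing non-phytotoxic solvent.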

crabgrass = test: Test B pre/postemergence crabgrass; type: in vivo, Digitaria sanguinalis; settings: Preemergence
How it was run: as §1

velvetleaf = test: Test B pre/postemergence velvetleaf; type: in vivo, Abutilon theophrasti; settings: Preemergence, scale of 0 to 10 where 0 is no effect and 10 is complete control
How it was run: as §1

blackgrass = test: Test B pre/postemergence blackgrass; type: in vivo, Alopecurus myosuroides; settings: Preemergence
How it was run: as §1

morningglory = test: Test B pre/postemergence morningglory; type: in vivo, Ipomoea hederacea; settings: Preemergence, scale of 0 to 10 where 0 is no effect and 10 is complete control
How it was run: as §1

pigweed = test: Test B pre/postemergence pigweed; type: in vivo, Amaranthus retroflexus; settings: Preemergence, scale of 0 to 10 where 0 is no effect and 10 is complete control
How it was run: as §1

soybean = test: Test B pre/postemergence soybean; type: in vivo, Glycine max; settings: Preemergence, scale of 0 to 10 where 0 is no effect and 10 is complete control
How it was run: as §1

sugar beet = test: Test B pre/postemergence sugar beet; type: in vivo, Beta vulgaris; settings: Preemergence, scale of 0 to 10 where 0 is no effect and 10 is complete control
How it was run: as §1

purple nutsedge = test: Test B pre/postemergence purple nutsedge; type: in vivo, Cyperus rotundus; settings: Preemergence, Rate 125 g/ha; scale of 0 to 10 where 0 is no effect and 10 is complete control
How it was run: as §1

rape = test: Test B pre/postemergence rape; type: in vivo, Brassica napus; settings: Preemergence, scale of 0 to 10 where 0 is no effect and 10 is complete control
How it was run: as §1

corn = test: Test B pre/postemergence corn; type: in vivo, Zea mays; settings: Preemergence
How it was run: as §1

cocklebur = test: Test B pre/postemergence cocklebur; type: in vivo, Xanthium strumarium; settings: Preemergence
How it was run: as §1

wild oat = test: Test B pre/postemergence wild oat; type: in vivo, Avena fatua; settings: Preemergence, scale of 0 to 10 where 0 is no effect and 10 is complete control
How it was run: as §1

bedstraw = test: Test B pre/postemergence bedstraw; type: in vivo, Galium aparine; settings: Preemergence
How it was run: as §1

surinam grass = test: Test B pre/postemergence surinam grass; type: in vivo, Brachiaria decumbens; settings: Preemergence
How it was run: as §1

giant foxtail = test: Test B pre/postemergence giant foxtail; type: in vivo, Setaria faberii; settings: Preemergence, scale of 0 to 10 where 0 is no effect and 10 is complete control
How it was run: as §1

[1] = Rate 62 g/ha, scale of 0 to 10 where 0 is no effect and 10 is complete control
[2] = Rate 125 g/ha, scale of 0 to 10 where 0 is no effect and 10 is complete control
[3] = Rate 250 g/ha, scale 0 to 10 (0 no effect, 10 complete control)
[4] = Rate 500 g/ha, scale of 0 to 10 where 0 is no effect and 10 is complete control

CCn1ncc(Cn2c(=O)on(C(=O)N(c3ccc(F)cc3)C(C)C)c2=O)c1Cl [Compound 685]
4: Plant response rating, Redroot pigweed (pigweed; Rate 125 g/ha)
0: Wheat plant response rating (wheat; Rate 62 g/ha) | Plant response rating, Wheat (wheat; Rate 125 g/ha) | Velvetleaf plant response rating (velvetleaf; Rate 62 g/ha) | Plant response rating, Velvetleaf (velvetleaf; Rate 125 g/ha) | Morningglory plant response rating (morningglory; Rate 62 g/ha) | Plant response rating, Morningglory (morningglory; Rate 125 g/ha) | Redroot pigweed plant response rating (pigweed; Rate 62 g/ha) | Soybean plant response rating (soybean; Rate 62 g/ha) | Plant response rating, Soybean (soybean; Rate 125 g/ha) | Sugarbeets plant response rating (sugar beet; Rate 62 g/ha) | Plant response rating, Sugarbeets (sugar beet; Rate 125 g/ha) | Plant response rating, Nutsedge (purple nutsedge) | Rape plant response rating (rape; Rate 62 g/ha) | Plant response rating, Rape (rape; Rate 125 g/ha) | Corn plant response rating (corn; [1]) | Plant response rating, Corn (corn; [2]) | Plant response rating, Corn (corn; [3]) | Cocklebur plant response rating (cocklebur; [1]) | Plant response rating, Cocklebur (cocklebur; [2]) | Plant response rating, Cocklebur (cocklebur; [3]) | Wild oats plant response rating (wild oat; Rate 62 g/ha) | Plant response rating, Bedstraw (bedstraw; [2]) | Plant response rating, Bedstraw (bedstraw; [3]) | Plant response rating, Bedstraw (bedstraw; [4])
9: Crabgrass plant response rating (crabgrass; [1]) | Plant response rating, Crabgrass (crabgrass; [2]) | Plant response rating, Crabgrass (crabgrass; [3]) | Plant response rating, B. signalgrass (surinam grass; [3]) | Plant response rating, B. signalgrass (surinam grass; [4]) | Giant foxtail plant response rating (giant foxtail; Rate 62 g/ha) | Plant response rating, Giant foxtail (giant foxtail; Rate 125 g/ha)
10: Plant response rating, Blackgrass (blackgrass; [3]) | Plant response rating, Blackgrass (blackgrass; [4])
7: Plant response rating, Blackgrass (blackgrass; [2]) | Plant response rating, B. signalgrass (surinam grass; [2])
3: Plant response rating, Wild oats (wild oat; Rate 125 g/ha)
5: Blackgrass plant response rating (blackgrass; [1]) | B. signalgrass plant response rating (surinam grass; [1])
